Test system: IRF pathway in THP1-Dual™ cells, THP-1 (HAQ)
Assay: Reporter gene expression assay in THP-1 cells (THP1-Dual, IRF pathway Lucia luciferase reporter, 2′,3′-cGAMP stimulation)
Assay type: cell-based, human
Conditions: Homo sapiens; THP1-Dual cells preincubated with compound 10 minutes, stimulation with 5 μM 2′,3′-cGAMP for 20 hr, QUANTI-Luc readout of the supernatant; read-out: THP-1 (HAQ) Activity (IC50 value range)
Protocol: Reporter Gene Expression Assay in THP-1 Cells
THP1-Dual™ cells (Invivogen) were derived from the human THP-1 monocyte cell line by stable integration of two inducible reporter constructs. As a result, THP1-Dual™ cells allow the simultaneous study of the IRF pathway, by assessing the activity of a secreted luciferase (Lucia) and the NF-κB pathway, by monitoring the activity of secreted SEAP. 5×10^4 THP1-Dual™ cells were seeded in 384-well plates in growth medium and preincubated with novel compounds for 10 minutes followed by stimulation with 5 μM 2′,3′-cGAMP. After 20 hr of stimulation the supernatant was removed and the IRF pathway reporter protein was readily measured in the cell culture supernatant using QUANTI-Luc™ (Invivogen), a luciferase detection reagent on a Spectramax i3X luminometer.

Compound | IC50 [µM]
O=C(Nc1ccc2c(c1)N(Cc1ccccc1)C(=O)CS2)Nc1c[nH]c2ccc(F)cc12 [Example 1, 1-(4-benzyl-3-oxo-3,4-dihydro-2H-benzo[b][1,4]thiazin-6-yl)-3-(5-fluoro-1H-indol-3-yl)urea] | < 1
O=C(Nc1ccc2c(c1)OCC(=O)N2Cc1c(F)cccc1Cl)Nc1c[nH]c2ccccc12 [Example 2, 1-(4-(2-Chloro-6-fluorobenzyl)-3-oxo-3,4-dihydro-2H-benzo[b][1,4]oxazin-7-yl)-3-(1H-indol-3-yl)urea] | < 1
O=C(Nc1ccc2c(c1)OCC(=O)N2Cc1ccccc1)Nc1c[nH]c2ccccc12 [Example 3, 1-(4-benzyl-3-oxo-3,4-dihydro-2H-benzo[b][1,4]oxazin-7-yl)-3-(1H-indol-3-yl)urea] | < 1
O=C(Nc1ccc2c(c1)N(Cc1ccccc1)C(=O)CO2)Nc1c[nH]c2ccccc12 [Example 4, 1-(4-benzyl-3-oxo-3,4-dihydro-2H-benzo[b][1,4]oxazin-6-yl)-3-(1H-indol-3-yl)urea] | < 1
O=C(Nc1ccc2c(c1)N(Cc1ccccc1)C(=O)CS2)Nc1c[nH]c2ncc(Cl)cc12 [Example 5, 1-(4-benzyl-3-oxo-3,4-dihydro-2H-benzo[b][1,4]thiazin-6-yl)-3-(5-chloro-1H-pyrrolo[2,3-b]pyridin-3-yl)urea] | < 1
O=C(Nc1ccc2c(c1)N(Cc1ccccc1)C(=O)CS2)Nc1c[nH]c2ncc(Br)cc12 [Example 6, 1-(4-benzyl-3-oxo-3,4-dihydro-2H-benzo[b][1,4]thiazin-6-yl)-3-(5-bromo-1H-pyrrolo[2,3-b]pyridin-3-yl)urea] | < 1
O=C(Nc1ccc2c(c1)SCC(=O)N2Cc1ccccc1)Nc1c[nH]c2ccccc12 [Example 7, 1-(4-benzyl-3-oxo-3,4-dihydro-2H-benzo[b][1,4]thiazin-7-yl)-3-(1H-indol-3-yl)urea] | < 1
O=C(Nc1ccc2c(c1)N(Cc1c(F)cccc1Cl)C(=O)CO2)Nc1c[nH]c2ccccc12 [Example 8, 1-(4-(2-chloro-6-fluorobenzyl)-3-oxo-3,4-dihydro-2H-benzo[b][1,4]oxazin-6-yl)-3-(1H-indol-3-yl)urea] | < 1
Cc1[nH]c2ccccc2c1NC(=O)Nc1ccc2c(c1)N(Cc1ccccc1)C(=O)CS2 [Example 9, 1-(4-benzyl-3-oxo-3,4-dihydro-2H-benzo[b][1,4]thiazin-6-yl)-3-(2-methyl-1H-indol-3-yl)urea] | 1 to 10
O=C(Nc1ccc2c(c1)N(Cc1ccccc1)C(=O)CS2)Nc1c[nH]c2ccc(Cl)cc12 [Example 10, 1-(4-benzyl-3-oxo-3,4-dihydro-2H-benzo[b][1,4]thiazin-6-yl)-3-(5-chloro-1H-indol-3-yl)urea] | < 1
O=C(Nc1ccc2c(c1)N(Cc1c(F)cccc1Cl)C(=O)CS2)Nc1c[nH]c2ccccc12 [Example 11, 1-(4-(2-chloro-6-fluorobenzyl)-3-oxo-3,4-dihydro-2H-benzo[b][1,4]thiazin-6-yl)-3-(1H-indol-3-yl)urea] | < 1
O=C(Nc1ccc2c(c1)SCC(=O)N2Cc1c(F)cccc1Cl)Nc1c[nH]c2ccccc12 [Example 12, 1-(4-(2-chloro-6-fluorobenzyl)-3-oxo-3,4-dihydro-2H-benzo[b][1,4]thiazin-7-yl)-3-(1H-indol-3-yl)urea] | < 1
O=C(Nc1ccc2c(c1)N(Cc1ccccc1)C(=O)CS2)Nc1c[nH]c2ncccc12 [Example 13, 1-(4-benzyl-3-oxo-3,4-dihydro-2H-benzo[b][1,4]thiazin-6-yl)-3-(1H-pyrrolo[2,3-b]pyridin-3-yl)urea] | < 1
O=C(Nc1ccc2c(c1)N(Cc1ccccc1)C(=O)CS2)Nc1c[nH]c2ccncc12 [Example 14, 1-(4-benzyl-3-oxo-3,4-dihydro-2H-benzo[b][1,4]thiazin-6-yl)-3-(1H-pyrrolo[3,2-c]pyridin-3-yl)urea] | 1 to 10
O=C(Nc1ccc2c(c1)N(Cc1ccccc1)C(=O)CS2)Nc1c[nH]c2cnccc12 [Example 15, 1-(4-benzyl-3-oxo-3,4-dihydro-2H-benzo[b][1,4]thiazin-6-yl)-3-(1H-pyrrolo[2,3-c]pyridin-3-yl)urea] | < 1
CN1C(=O)CSc2ccc(NC(=O)Nc3c[nH]c4ccccc34)cc21 [Example 16, 1-(1H-indol-3-yl)-3-(4-methyl-3-oxo-3,4-dihydro-2H-benzo[b][1,4]thiazin-6-yl)urea] | < 1
O=C(Nc1ccc2c(c1)N(Cc1ccccc1)C(=O)CS2)Nc1c[nH]c2cccnc12 [Example 17, 1-(4-benzyl-3-oxo-3,4-dihydro-2H-benzo[b][1,4]thiazin-6-yl)-3-(1H-pyrrolo[3,2-b]pyridin-3-yl)urea] | 1 to 10

Compound | IC50 [µM]
O=C(Nc1ccc2c(c1)N(Cc1cc(F)cc(F)c1)C(=O)CS2)Nc1c[nH]c2ccccc12 [Example 18, 1-(4-(3,5-difluorobenzyl)-3-oxo-3,4-dihydro-2H-benzo[b][1,4]thiazin-6-yl)-3-(1H-indol-3-yl)urea] | < 1
O=C(Nc1ccc2c(c1)N(Cc1ccccn1)C(=O)CS2)Nc1c[nH]c2ccccc12 [Example 19, 1-(1H-indol-3-yl)-3-(3-oxo-4-(pyridin-2-ylmethyl)-3,4-dihydro-2H-benzo[b][1,4]thiazin-6-yl)urea] | 1 to 10
O=C(Nc1ccc2c(c1)N(Cc1ccncc1)C(=O)CS2)Nc1c[nH]c2ccccc12 [Example 20, 1-(1H-indol-3-yl)-3-(3-oxo-4-(pyridin-4-ylmethyl)-3,4-dihydro-2H-benzo[b][1,4]thiazin-6-yl)urea] | 1 to 10
NC(=O)c1cccc(CN2C(=O)CSc3ccc(NC(=O)Nc4c[nH]c5ccccc45)cc32)c1 [Example 21, 3-((6-(3-(1H-indol-3-yl)ureido)-3-oxo-2,3-dihydro-4H-benzo[b][1,4]thiazin-4-yl)methyl)benzamide] | 1 to 10
NC(=O)c1ccccc1CN1C(=O)CSc2ccc(NC(=O)Nc3c[nH]c4ccccc34)cc21 [Example 22, 2-((6-(3-(1H-indol-3-yl)ureido)-3-oxo-2,3-dihydro-4H-benzo[b][1,4]thiazin-4-yl)methyl)benzamide] | 1 to 10
NC(=O)c1ccc(CN2C(=O)CSc3ccc(NC(=O)Nc4c[nH]c5ccccc45)cc32)cc1 [Example 23, 4-((6-(3-(1H-indol-3-yl)ureido)-3-oxo-2,3-dihydro-4H-benzo[b][1,4]thiazin-4-yl)methyl)benzamide] | 1 to 10
O=C(Nc1ccc2c(c1)N(Cc1cccnc1)C(=O)CS2)Nc1c[nH]c2ccccc12 [Example 24, 1-(1H-indol-3-yl)-3-(3-oxo-4-(pyridin-3-ylmethyl)-3,4-dihydro-2H-benzo[b][1,4]thiazin-6-yl)urea] | 1 to 10
COc1ccc(F)c(CN2C(=O)CSc3ccc(NC(=O)Nc4c[nH]c5ccccc45)cc32)c1Cl [Example 25, 1-(4-(2-chloro-6-fluoro-3-methoxybenzyl)-3-oxo-3,4-dihydro-2H-benzo[b][1,4]thiazin-6-yl)-3-(1H-indol-3-yl)urea] | < 1
O=C(Nc1ccc2c(c1)N(Cc1noc3ccccc13)C(=O)CS2)Nc1c[nH]c2ccccc12 [Example 26, 1-(4-(benzo[d]isoxazol-3-ylmethyl)-3-oxo-3,4-dihydro-2H-benzo[b][1,4]thiazin-6-yl)-3-(1H-indol-3-yl)urea] | < 1
CC1Sc2ccc(NC(=O)Nc3c[nH]c4ccccc34)cc2N(Cc2c(F)cccc2Cl)C1=O (stereo not shown) [Example 27, 1-(4-(2-chloro-6-fluorobenzyl)-2-methyl-3-oxo-3,4-dihydro-2H-benzo[b][1,4]thiazin-6-yl)-3-(1H-indol-3-yl)urea] | < 1
O=C(Nc1ccc2c(c1)N(Cc1c(F)cccc1Cl)C(=O)CS2)Nc1c[nH]c2ccc(Cl)cc12 [Example 28, 1-(5-chloro-1H-indol-3-yl)-3-(4-(2-chloro-6-fluorobenzyl)-3-oxo-3,4-dihydro-2H-benzo[b][1,4]thiazin-6-yl)urea] | 1 to 10
CC1Sc2ccc(NC(=O)Nc3c[nH]c4ccccc34)cc2N(Cc2ccccc2)C1=O (stereo not shown) [Example 29, 1-(4-benzyl-2-methyl-3-oxo-3,4-dihydro-2H-benzo[b][1,4]thiazin-6-yl)-3-(1H-indol-3-yl)urea] | < 1
CC1Sc2cc(NC(=O)Nc3c[nH]c4ccccc34)ccc2N(Cc2ccccc2)C1=O (stereo not shown) [Example 30, 1-(4-benzyl-2-methyl-3-oxo-3,4-dihydro-2H-benzo[b][1,4]thiazin-7-yl)-3-(1H-indol-3-yl)urea] | < 1
CC1Sc2ccc(NC(=O)Nc3c[nH]c4ccc(F)cc34)cc2N(Cc2cc(F)cc(F)c2)C1=O (stereo not shown) [Example 31, 1-(4-(3,5-difluorobenzyl)-2-methyl-3-oxo-3,4-dihydro-2H-benzo[b][1,4]thiazin-6-yl)-3-(5-fluoro-1H-indol-3-yl)urea] | < 1
O=C(Nc1ccc2c(c1)N(Cc1cc(F)cc(F)c1)C(=O)CS2)Nc1c[nH]c2ccc(F)cc12 [Example 32, 1-(4-(3,5-difluorobenzyl)-3-oxo-3,4-dihydro-2H-benzo[b][1,4]thiazin-6-yl)-3-(5-fluoro-1H-indol-3-yl)urea] | < 1
CC1Sc2ccc(NC(=O)Nc3c[nH]c4ccccc34)cc2N(Cc2cc(F)cc(F)c2)C1=O (stereo not shown) [Example 33, 1-(4-(3,5-difluorobenzyl)-2-methyl-3-oxo-3,4-dihydro-2H-benzo[b][1,4]thiazin-6-yl)-3-(1H-indol-3-yl)urea] | < 1
O=C(Nc1ccc2c(c1)N(Cc1c(F)ccc(O)c1Cl)C(=O)CS2)Nc1c[nH]c2ccccc12 [Example 34, 1-(4-(2-chloro-6-fluoro-3-hydroxybenzyl)-3-oxo-3,4-dihydro-2H-benzo[b][1,4]thiazin-6-yl)-3-(1H-indol-3-yl)urea] | < 1
